Source: patent US9593121B2, “Indole substituted pyrrolopyrimidinyl inhibitors of Uba6” (Millennium Pharmaceuticals, Inc., priority 2012, dated 2017)
Counter-ions that a name gives are not always drawn.

Molecular target: recombinant human his-UBA6 enzyme (Homo sapiens (Human), UniProt A0AVT1)
Test: UBA6 AlphaScreen Assay
Type: biochemical
Details: for inhibition at 0.123 µM: compound at 0.123 μM
Method: UBA6 AlphaScreen® Assay. The UBA6 enzmatic reaction totals 20 μL and contains 50 mM HEPES (pH 7.5), 0.05% BSA, 0.02% Tween 20, 0.1 mM TCEP, 5 mM MgCl2, 2 μM ATP, 60 nM Flag-Ubiquitin, 20 nM Biotin-his-Use1, and 0.15 nM recombinant human his-UBA6 enzyme. The enzymatic reaction mixture, with and without compound inhibitor, is incubated at 24° C. for 90 minutes in a 384 well plate before termination with 10 μL of Stop/Detection buffer (50 mM HEPES (pH 7.5), 0.05% BSA, 0.02% Tween 20, 0.1 mM TCEP, 20 mM EDTA, 30 μg/ml anti-FLAG Acceptor beads (Perkin Elmer), and 6 μg/mL streptavidin donor beads (Perkin Elmer). After incubation for 2 hours at 24° C. in a dark room, quantification of the AlphaScreen signal is performed on the Pherastar™ (BMG).

recombinant human his-UBA6 enzyme, sequence (A0AVT1 whole entry): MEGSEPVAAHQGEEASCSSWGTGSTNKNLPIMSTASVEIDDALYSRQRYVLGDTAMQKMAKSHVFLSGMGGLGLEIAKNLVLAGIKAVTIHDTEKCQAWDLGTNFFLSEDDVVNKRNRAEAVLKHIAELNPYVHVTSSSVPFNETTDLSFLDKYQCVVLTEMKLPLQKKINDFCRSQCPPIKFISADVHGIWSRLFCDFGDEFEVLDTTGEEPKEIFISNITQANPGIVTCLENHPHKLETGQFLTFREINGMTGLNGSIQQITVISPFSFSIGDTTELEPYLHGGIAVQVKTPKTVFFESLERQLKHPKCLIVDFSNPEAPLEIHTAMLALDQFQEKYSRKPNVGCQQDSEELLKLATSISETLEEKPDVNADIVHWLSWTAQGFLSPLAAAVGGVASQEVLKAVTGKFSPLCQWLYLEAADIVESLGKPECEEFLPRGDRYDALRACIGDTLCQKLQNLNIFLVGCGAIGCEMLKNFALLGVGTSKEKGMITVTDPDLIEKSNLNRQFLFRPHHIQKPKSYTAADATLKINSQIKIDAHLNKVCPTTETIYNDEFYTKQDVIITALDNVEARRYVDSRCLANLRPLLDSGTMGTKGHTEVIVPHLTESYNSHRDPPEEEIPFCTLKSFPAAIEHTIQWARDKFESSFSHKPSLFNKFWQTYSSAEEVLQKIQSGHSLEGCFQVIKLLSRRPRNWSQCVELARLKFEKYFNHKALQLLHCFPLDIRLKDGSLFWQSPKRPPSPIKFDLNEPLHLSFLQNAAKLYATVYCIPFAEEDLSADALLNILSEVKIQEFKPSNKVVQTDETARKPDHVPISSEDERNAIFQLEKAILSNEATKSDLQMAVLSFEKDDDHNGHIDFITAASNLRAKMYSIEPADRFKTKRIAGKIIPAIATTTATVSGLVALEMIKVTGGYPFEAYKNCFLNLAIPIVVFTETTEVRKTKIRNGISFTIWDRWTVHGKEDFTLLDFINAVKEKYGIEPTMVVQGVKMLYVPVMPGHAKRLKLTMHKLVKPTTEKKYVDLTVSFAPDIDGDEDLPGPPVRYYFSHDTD

Row | IC50 | inhibition at 0.123 µM | inhibition at 1.11 µM (compound at 1.11 μM (footnote ‡)) | SMILES
1 | ≤ 50 nM | 93% |  | COc1ccc2[nH]c(-c3ncnc4c3ccn4[C@@H]3C[C@@H](COS(N)(=O)=O)[C@@H](O)C3)cc2c1 [Compound I-03, {(1S,2S,4R)-2-hydroxy-4-[4-(5-methoxy-1H-indol-2-yl)-7H-pyrrolo[2,3-d]pyrimidin-7-yl]cyclopentyl}methyl sulfamate]
2 | 50 to 2000 nM | 61% |  | NS(=O)(=O)OC[C@@H]1C[C@@H](n2ccc3c(-c4cc5cc(F)ccc5[nH]4)ncnc32)C[C@@H]1O [Compound I-11, {(1S,2S,4R)-4-[4-(5-fluoro-1H-indol-2-yl)-7H-pyrrolo[2,3-d]pyrimidin-7-yl]-2-hydroxycyclopentyl}methyl sulfamate]
3 | ≤ 50 nM | 87% |  | NS(=O)(=O)OC[C@@H]1C[C@@H](n2ccc3c(-c4cc5ccccc5[nH]4)ncnc32)C[C@@H]1O [Compound I-01, ((1S,2S,4R)-4-(4-(1H-indol-2-yl)-7H-pyrrolo[2,3-d]pyrimidin-7-yl)-2-hydroxycyclopentyl)methyl sulfamate HCl]
4 | ≤ 50 nM | 88% |  | Cc1ccc2cc(-c3ncnc4c3ccn4[C@@H]3C[C@@H](COS(N)(=O)=O)[C@@H](O)C3)[nH]c2c1 [Compound I-06, {(1S,2S,4R)-2-hydroxy-4-[4-(6-methyl-1H-indol-2-yl)-7H-pyrrolo[2,3-d]pyrimidin-7-yl]cyclopentyl}methyl sulfamate]
5 | ≤ 50 nM | 86% |  | N#Cc1ccc2cc(-c3ncnc4c3ccn4[C@@H]3C[C@@H](COS(N)(=O)=O)[C@@H](O)C3)[nH]c2c1 [Compound I-05, {(1S,2S,4R)-4-[4-(6-cyano-1H-indol-2-yl)-7H-pyrrolo[2,3-d]pyrimidin-7-yl]-2-hydroxycyclopentyl}methyl sulfamate]
6 | 50 to 2000 nM | 16% |  | Cc1c(-c2ncnc3c2ccn3[C@@H]2C[C@@H](COS(N)(=O)=O)[C@@H](O)C2)[nH]c2ccccc12 [Compound I-13, {(1S,2S,4R)-2-hydroxy-4-[4-(3-methyl-1H-indol-2-yl)-7H-pyrrolo[2,3-d]pyrimidin-7-yl]cyclopentyl}methyl sulfamate]
7 | 50 to 2000 nM | 49% |  | NS(=O)(=O)OC[C@@H]1C[C@@H](n2ccc3c(-c4cc5cc(F)c(Cl)cc5[nH]4)ncnc32)C[C@@H]1O [Compound I-09, {(1S,2S,4R)-4-[4-(6-chloro-5-fluoro-1H-indol-2-yl)-7H-pyrrolo[2,3-d]pyrimidin-7-yl]-2-hydroxycyclopentyl}methyl sulfamate]
8 | 50 to 2000 nM | 12% |  | COc1cccc2cc(-c3ncnc4c3ccn4[C@@H]3C[C@@H](COS(N)(=O)=O)[C@@H](O)C3)[nH]c12 [Compound I-12, {(1S,2S,4R)-2-hydroxy-4-[4-(7-methoxy-1H-indol-2-yl)-7H-pyrrolo[2,3-d]pyrimidin-7-yl]cyclopentyl}methyl sulfamate]
9 | 50 to 2000 nM |  | 26% | COc1ccc2cc(-c3ncnc4c3ccn4[C@@H]3C[C@@H](COS(N)(=O)=O)[C@@H](O)C3)n(C(=O)OC(C)(C)C)c2c1 [Compound I-10, tert-butyl 2-(7-{(1R,3S,4S)-3-hydroxy-4-[(sulfamoyloxy)methyl]cyclopentyl}-7H-pyrrolo[2,3-d]pyrimidin-4-yl)-6-methoxy-1H-indole-1-carboxylate]
10 | ≤ 50 nM | 90% |  | COc1ccc2cc(-c3ncnc4c3ccn4[C@@H]3C[C@@H](COS(N)(=O)=O)[C@@H](O)C3)[nH]c2c1 [Compound I-07, {(1S,2S,4R)-2-hydroxy-4-[4-(6-methoxy-1H-indol-2-yl)-7H-pyrrolo[2,3-d]pyrimidin-7-yl]cyclopentyl}methyl sulfamate]
11 | ≤ 50 nM | 91% |  | NS(=O)(=O)OC[C@@H]1C[C@@H](n2ccc3c(-c4cc5ccc(Cl)cc5[nH]4)ncnc32)C[C@@H]1O [Compound I-04, {(1S,2S,4R)-4-[4-(6-chloro-1H-indol-2-yl)-7H-pyrrolo[2,3-d]pyrimidin-7-yl]-2-hydroxycyclopentyl}methyl sulfamate]
12 | 50 to 2000 nM | 5.9% |  | Cn1c(-c2ncnc3c2ccn3[C@@H]2C[C@@H](COS(N)(=O)=O)[C@@H](O)C2)cc2ccccc21 [Compound I-02, {(1S,2S,4R)-2-hydroxy-4-[4-(1-methyl-1H-indol-2-yl)-7H-pyrrolo[2,3-d]pyrimidin-7-yl]cyclopentyl}methyl sulfamate HCl]
13 | ≤ 50 nM | 74% |  | Cc1nc(-c2cc3ccccc3[nH]2)c2ccn([C@@H]3C[C@@H](COS(N)(=O)=O)[C@@H](O)C3)c2n1 [Compound I-08, {(1S,2S,4R)-2-hydroxy-4-[4-(1H-indol-2-yl)-2-methyl-7H-pyrrolo[2,3-d]pyrimidin-7-yl]cyclopentyl}methyl sulfamate HCl]

Row | SMILES | IC50 | inhibition at 0.123 µM | inhibition at 1.11 µM (compound at 1.11 μM (footnote ‡))
14 | NS(=O)(=O)OC[C@@H]1C[C@@H](n2ccc3c(-c4cc5ccc(C(F)(F)F)cc5[nH]4)ncnc32)C[C@@H]1O [Compound I-14, [(1S,2S,4R)-2-hydroxy-4-{4-[6-(trifluoromethyl)-1H-indol-2-yl]-7H-pyrrolo[2,3-d]pyrimidin-7-yl}cyclopentyl]methyl sulfamate] | 50 to 2000 nM | 32% | 
